| Structure (SMILES) | melting point |
| --- | --- |
| CCCCOc1nc(N)c2[nH]c(=O)n(CCCCNS(=O)(=O)c3ccc(CCC(=O)OC)cc3)c2n1 | 150 to 152 °C |
| O=[N+]([O-])c1cc(C(F)(F)F)cc([N+](=O)[O-])c1Nc1ncc(Cl)cc1Cl | 85 to 87 °C |
| Clc1ccc(Cl)c(CN2CCNc3ncc(C4=CCNCC4)cc32)c1 | 133 to 136 °C |
| C=CCCCCCCCCNC(=O)N(C)O | 58 to 59 °C |
| O=c1[nH]c(=O)n(C2OC(CBr)C(O)C2O)cc1C=CBr (stereo unspecified) | 201 °C |
| CC(=O)c1c(C)nc(C)nc1NCc1ccc(Br)cc1 | 78 to 80 °C |
| CCOC(=O)c1c(N)c2c(n1C)N=CCN2 | 119 to 121 °C |
| Cc1c(NC(=O)c2ccc(-c3ccc(F)cc3)cc2)ccc2cc(CN3CCC(CC(=O)N4CCCCC4)CC3)cnc12 | 189 to 190 °C |
| CC1Cc2cccc(-c3ccccc3)c2C(=O)O1 (stereo unspecified) | 140 to 142 °C |
| COc1cccc2c(=O)n3c(cc12)S(=O)(=O)CCC3 | 251 to 252 °C |
| COC(=O)c1ccc(C(C)(C)C)[nH]c1=O | 171 to 174 °C |
| O=C(O)CN(C(=O)CCS)[C@H]1CC[C@H](c2ccccc2)CC1 | 125 to 130 °C |
| CC1c2cc(O)ccc2-c2c1cc1cc(O)ccc1c2Cl (stereo unspecified) | 215 to 220 °C |
| CCCCCC(C)C(C)c1cc(O)c2c(c1)OC(C)(C)C1=C2CN(CC(=O)NC(=O)NC)CC1 (stereo unspecified) | 145 to 147 °C |
| O=C(c1cccs1)c1cnn2c(-c3cccc(NC(=O)C4CCCC4)c3)ccnc12 | 209 to 210 °C |
| CC1(Cn2c(=O)oc3ccccc32)Cn2cc([N+](=O)[O-])nc2O1 (stereo unspecified) | 223 to 224 °C |
| CNC(=O)Oc1ccc(C2CCC(=O)N2CCN2CCOCC2)cc1 (stereo unspecified) | 119 to 120 °C |
| CC(C(=O)O)c1ccc2cc(OCC=C(Cl)Cl)ccc2c1 (stereo unspecified) | 107 to 109 °C |
| CON(C)C(=O)Nc1c(C(=O)C2CCCCC2)[nH]c2cc(Cl)ccc12 | 208 to 210 °C |
| CC(C)(O)C(O)c1cnc(C2OCCO2)s1 (stereo unspecified) | 130 to 131 °C |
| NC1N=C(c2ccccc2)c2ccccc2N(CC(F)(F)F)C1=O (stereo unspecified) | 141 to 143 °C |

| Structure (SMILES) | melting point |
| --- | --- |
| O=C(O)Cc1ccccc1OCCCc1cn(-c2ccc(C(F)(F)F)cn2)nc1C1CCCCC1 | 127 to 128 °C |
| CCCc1c(OCCCOc2ccc3ccccc3c2)ccc2c1OC(CCC(=O)O)(CCC(=O)O)CC2=O | 158 °C |
| COC12CC(c3nnc(-c4cncc(Br)c4)[nH]3)CN(C)C1Cc1c[nH]c3cccc2c13 (stereo unspecified) | 142 to 146 °C |
| CCN(CC)C(=O)Oc1nc(-c2ccccc2)cc2ccccc12 | 81 °C |
| c1ccc(Cc2cc3ccncc3[nH]2)cc1 | 142 to 146 °C |
| CCn1cc(CC(=O)OC)c(O)n1 | 72 to 73 °C |
| Cc1c(C(=O)Nc2ccc(N3CCC(N4CCOCC4)CC3)c(C#N)c2)cnn1-c1ccc(Br)cc1 | 250 to 252 °C |
| CCO/C(=C\c1ccc(OCCc2ccc(OS(C)(=O)=O)cc2)c(OC)c1)C(=O)O | 147 °C |
| Cc1oc(-c2ccc(C(F)(F)F)cc2)nc1COc1cccc(C=CC(C)n2oc(=O)[nH]c2=O)c1 (stereo unspecified) | 104 to 105 °C |
| Cn1c(C#N)c(C#N)n(-c2cc(O)c(Cl)cc2F)c1=O | 210 to 212 °C |
| CC(=O)NC1C(OCc2ccccc2)OC(COCc2ccccc2)C(OCc2ccccc2)C1OCC(=O)O (stereo unspecified) | 128 to 129 °C |
| CC(=O)OCC(ON1C(C)(C)CC(OC(=O)C(C)(C)C)CC1(C)C)c1ccccc1 (stereo unspecified) | 102 to 103 °C |
| COc1cc2c(c(OC)c1OC)-c1ccc(OC(=O)N3CCC(N4CCCCC4)CC3)cc1C(NC(C)=O)CC2 (stereo unspecified) | 168 to 175 °C |
| OC(Cn1cncn1)c1ccc(Cl)cc1Cl (stereo unspecified) | 87 °C |
| OCCc1cccc(Nc2ccc3nc(N[C@@H]4CCc5ccccc54)ccc3c2)c1 | 109 °C |
| COC(=O)C1CC(Oc2ccc([N+](=O)[O-])cc2)CN1C(=O)C1(C)CCc2c(C)c(O)c(C)c(C)c2O1 (stereo unspecified) | 103 to 105 °C |
| Cc1ccc2c(c1)CNCC2c1ccc(O)c(O)c1 (stereo unspecified) | 192 to 195 °C |
| CNC(=O)c1ccc(-c2ccc3nnn(Cc4ccc5ncccc5c4)c3n2)cc1F | 212 to 214 °C |
| Cc1cnc(-c2c(F)cccc2F)nn1 | 90 to 93 °C |
| CCC/C(=C\C=C\C(=O)O)c1ccc(OC)cc1 | 151 to 152 °C |
| CCNc1c(SC(F)(F)F)c(C)nn1-c1c(Cl)cc(C(F)(F)F)cc1Cl | 53 to 54 °C |

Now from value to compound:

| melting point | Structure (SMILES) |
| --- | --- |
| 197 to 200 °C | N#Cc1cccc(C(=O)Nc2ccccc2N)c1 |
| 200 to 201 °C | Oc1ccc2c(c1)C(Cc1ccnc(F)c1)(Cc1ccnc(F)c1)c1ccccc1-2 |
| 127 °C | CCOC(=O)c1ccccc1N(CC(=O)OC(C)(C)C)C(=O)CN1C(=O)c2ccccc2C1=O |
| 123 °C | CC(C)(C)c1cc(C=O)cc(Cl)c1O |
| 177 to 179 °C | O=Cc1cn(C(c2ccccc2)(c2ccccc2)c2ccccc2)c(F)n1 |
| 252 to 254 °C | COc1cc(OC)c2c(-c3ccc4c(c3)OCO4)c3c(cc2c1)C(=O)NC3 |
| 90 °C | COc1cc2c(cc1OC)C(O)(c1ccccn1)CC(C)(C)CO2 (stereo unspecified) |
| 57 to 58 °C | CCSc1snc(OCOCC#CI)c1C#N |
| 228 °C | O=S1(=O)c2cccc3cccc(c23)N1CCN1CCC(CN2CCc3[nH]c4ccc(F)cc4c3C2)CC1 |
| 109 to 110 °C | CCCCCCCCC1CC1C(N)=O (stereo unspecified) |
| 160 to 161 °C | CCN1CCCC1CNC(=O)c1cc(S(N)(=O)=O)cc2c1OCCO2 (stereo unspecified) |
| 81 to 82 °C | C=Cc1noc(C2=CCCN(C(=O)OC(C)(C)C)C2)n1 |
| 129 to 132 °C | COc1cnc(Cl)c(C(N)=O)c1 |
| 178 to 180 °C | COc1cc(C=Cc2conc2C)cc(Br)c1O |
| 117 to 118 °C | O=c1ccc2ccc(OCCCN3CCN(c4ccccc4)CC3)cc2o1 |
| 97 to 98 °C | Cc1cc(C#N)sc1-c1ccc2c(c1)C(C)(C)OC(C(F)(F)F)N2 (stereo unspecified) |
| 85 °C | CCCCCCC1C(=O)NC(C(=O)SC2CCCCC2)(C(O)C2C=CCCC2)C1(C)O (stereo unspecified) |
| 122 to 124 °C | COC(=O)C(CCSC)NC(=O)c1ccc([N+](=O)[O-])cc1-c1cc(C)cc(C)c1 (stereo unspecified) |
| 174 °C | O=C(c1ccccc1)c1ccc2cc[nH]c2n1 |
| 131 to 133 °C | CC(=O)Oc1ccc(C(=O)NNC(=O)c2occ(-c3ccccc3)c2-c2ccccc2)cc1C#N |

| melting point | Structure (SMILES) |
| --- | --- |
| 362 to 365 °C | O=C(O)c1ccc(NC(=O)c2ccncc2)cc1 |
| 122 to 123 °C | CSc1ccc2c(c1)Cc1ccc(C=O)cc1O2 |
| 187 to 188 °C | COc1ccc2c(c1)c(C(C)C(=O)O)cc(=O)n2Cc1ccccc1Cl (stereo unspecified) |
| 263 to 265 °C | CC(=O)Nc1nc2c(Oc3cc(-c4ccc(C(F)(F)F)cc4NCc4cncn4C)ncn3)cccc2s1 |
| 125 to 126 °C | CN(CCc1c[nH]c2ccccc12)C(=O)CCCC(=O)O |
| 252 to 255 °C | O=C1NC(=O)c2c1c(-c1ccccc1)cc1c2c2cc(O)ccc2n1CCCN1CCOCC1 |
| 123 to 125 °C | O=C(NCCCc1ccncc1)N(CCCc1ccccc1)C(c1ccccc1)c1ccccc1 |
| 145 to 147 °C | COc1ccc(CC(=S)N2CCOCC2)cc1 |
| 245 to 246 °C | Nc1nc2cc(Cl)c(Cl)cc2n1Cc1ccccc1 |
| 238 to 240 °C | CC1(C)C=C(c2ccccn2)c2cc(C(=O)O)ccc2O1 |
| 108 to 109 °C | CC(C)(C)[Si](O[C@@H]1CC(=O)C[C@H](O[Si](c2ccccc2)(c2ccccc2)C(C)(C)C)C1)(c1ccccc1)c1ccccc1 |
| 203 to 205 °C | CC(C)(C)CNc1nc(C#N)nc2ccc(OCc3ccncc3)cc12 |
| 174 to 177 °C | CN1CCn2c1nc(N1CCc3ccccc3CC1)c(C#N)c2=O |
| 88 to 90 °C | COC(=O)c1ccc(OCC(O)COc2ccc(Cl)cc2)cc1 (stereo unspecified) |
| 200 to 201 °C | COc1cc(NS(=O)(=O)c2ccc(N3CCNC3=O)cc2)cc(OC)c1 |
| 125 °C | O=C(O)C=NNc1ccc(C(F)(F)F)cc1 |
| 262 to 264 °C | N=C(Nc1cccc(NC(=O)/C=C/c2ccccc2Cl)c1)c1ccccc1 |
| 171 to 172 °C | CC(=O)N1OCC(=O)N(CCl)C1c1ccccc1 (stereo unspecified) |
| 184 °C | COc1ccccc1C(=O)c1cccc(NC(=O)c2ccn3c2CSC3c2cccnc2)c1 (stereo unspecified) |
| 140 to 141 °C | CCOc1cc(C(=O)c2ccccn2)ccc1OCCO |

| melting point | Structure (SMILES) |
| --- | --- |
| 241 °C | CNC(=O)Nc1snc(S(C)=O)c1C#N (stereo unspecified) |
| 221 to 222 °C | COc1cc(COc2nn(-c3ccccc3)cc2C=CC(=O)NNC(C)=O)ccc1OCc1nc(-c2ccco2)oc1C |
| 119 to 121 °C | COC(=O)c1ccnc(N2CCN(Cc3ccc(F)cc3)C2=O)c1 |
| 232 to 233 °C | Cc1c(S(=O)(=O)c2ccc(=O)[nH]n2)oc2cccc(Cl)c12 |
| 285 to 290 °C | CCNC(=O)Nc1nc2cc(-c3ccc(N(C)C)nc3)ccn2n1 |
| 190 °C | CCCCc1nc(=O)n2nc(-c3ccco3)cc2[nH]1 |
| 69 to 73 °C | CCCCCCCCC1(CCCCCCCC)c2cc([N+](=O)[O-])ccc2-c2ccc([N+](=O)[O-])cc21 |
| 240 °C | O=P1(O)Oc2ccccc2-c2cc(C(F)(F)F)ccc21 |
| 62 to 63.5 °C | CC(=O)C(C#N)C(=O)C1CC1 (stereo unspecified) |
| 160 to 161 °C | CCOCc1nc2c(N)nc3cccnc3c2n1C1(OC)CCCCC1 |
| 64 to 65 °C | Cc1cccc(CON2C(C)(C)CC(OC(=O)c3ccccc3)CC2(C)C)c1 |
| 36 to 38 °C | CCCOc1ccc(C(=O)CBr)cc1 |
| 140 to 142 °C | CS(=O)(=O)O[C@H](COC(=O)CCl)[C@H](NC(=O)OCc1ccccc1)C(N)=O |
| 145 to 146 °C | CCCc1nn(-c2ccc(C(F)(F)F)cn2)cc1CCCOc1c(Br)cccc1CC(=O)O |
| 223 to 226 °C | Cc1nnc2cc(-c3ccncc3)ccn12 |
| 168 to 170 °C | Cc1cc(C#N)cn2cc(-c3cccc(Br)c3)nc12 |
| 149 to 150 °C | CCCCn1c(=O)c(NC(=O)Nc2cc(CO)ccc2C(C)(C)C)c(-c2cccc(OCc3cccnc3)c2)c2cccnc21 |
| 103 to 107 °C | Cc1cc(SC2=C(O)CC(CCc3cc(Cl)c(N)c(Cl)c3)(C(C)C)OC2=O)c(C(C)(C)C)cc1N (stereo unspecified) |
| 66 to 70 °C | CN(Cc1ccccc1)c1cc(Cl)c(C=O)c(Cl)c1 |

From a melting point compilation (Tetko et al.; mined from patent text by program, amines drawn as free bases though some values may be those of a salt)
